In patent US11059823B2, “Small molecule inhibitors of the JAK family of kinases” (Janssen Pharmaceutica NV, priority 2016, dated 2021):

Key:
Assay type in all cases: biochemical
JAK1-JH1JH2 = JAK1-JH1JH2 (Homo sapiens (Human), UniProt P23458); assay: Enzymatic inhibition assay (HTMS), JAK1; conditions: 12.5 μM ATP; read-out: JAK1_JH1JH2 IC50
Source text: (§1) JAK1-JH1JH2 (574-1154 with a His-GST Tag and a C-terminal tev (ENLYFQ-G) cleavage site), JAK3-JH1JH2 (512-1124 with a GST Tag and a C-terminal tev (ENLYFQ-G) cleavage site), and Tyk2-JH1JH2 (8H_tev_580-1182-C936A-C1142A with a C-terminal tev (ENLYFQ-G) cleavage site) were purified internally. […] LC/MS grade water and acetonitrile (ACN), were purchased from HoneyWell, Burdick & Jackson (Muskegon, Mich., USA). Dimethylsulfoxide 99.8% (DMSO) and trifluoroacetic acid 99.5% (TFA) were purchased from EMD Chemical (Gibbstown, N.J., USA). Adenosine triphosphate (ATP), 4-morpholinepropanesulfonic acid (MOPS), magnesium chloride (MgCl2), ethylenediaminetetraacetic acid (EDTA), dithiothreitol (DTT), formic acid >95% (FA) and Tween-20 were purchased from Sigma (St Louis, Mo., USA). 384-well polypropylene plates, Cat#781280 were purchased from Greiner (Monroe, N.C.), RapidFire™ cartridge A C4 Column (Agilent Technologies, Santa Clara, Calif.). […]
(§2) 11-point dosing series were made for each compound by serially diluting 1:3 or 1:4 in DMSO, with point 12 being a DMSO control. […] Compound inhibition was assessed by a decrease of the phosphorylated product levels in sample wells compared to the non-inhibited enzyme reaction. […]

JAK2-JH1JH2 = JAK2-JH1JH2 (Homo sapiens (Human), UniProt O60674); assay: Enzymatic inhibition assay (HTMS), JAK2; conditions: 30 μM ATP; read-out: JAK2_I_JH1JH2 IC50
Source text: as §1, §2

JAK3-JH1JH2 = JAK3-JH1JH2 (Homo sapiens (Human), UniProt P52333); assay: Enzymatic inhibition assay (HTMS), JAK3; conditions: 150 μM ATP; read-out: JAK3_I_JH1JH2 IC50
Source text: as §1, §2

Tyk2-JH1JH2 = Tyk2-JH1JH2 (Homo sapiens (Human), UniProt P29597, C1142A/C936A); assay: Enzymatic inhibition assay (HTMS), Tyk2; conditions: 50 μM ATP; read-out: Tyk2_I_JH1JH2 IC50
Source text: as §1, §2

JAK1-JH1JH2, sequence (P23458 574-1154): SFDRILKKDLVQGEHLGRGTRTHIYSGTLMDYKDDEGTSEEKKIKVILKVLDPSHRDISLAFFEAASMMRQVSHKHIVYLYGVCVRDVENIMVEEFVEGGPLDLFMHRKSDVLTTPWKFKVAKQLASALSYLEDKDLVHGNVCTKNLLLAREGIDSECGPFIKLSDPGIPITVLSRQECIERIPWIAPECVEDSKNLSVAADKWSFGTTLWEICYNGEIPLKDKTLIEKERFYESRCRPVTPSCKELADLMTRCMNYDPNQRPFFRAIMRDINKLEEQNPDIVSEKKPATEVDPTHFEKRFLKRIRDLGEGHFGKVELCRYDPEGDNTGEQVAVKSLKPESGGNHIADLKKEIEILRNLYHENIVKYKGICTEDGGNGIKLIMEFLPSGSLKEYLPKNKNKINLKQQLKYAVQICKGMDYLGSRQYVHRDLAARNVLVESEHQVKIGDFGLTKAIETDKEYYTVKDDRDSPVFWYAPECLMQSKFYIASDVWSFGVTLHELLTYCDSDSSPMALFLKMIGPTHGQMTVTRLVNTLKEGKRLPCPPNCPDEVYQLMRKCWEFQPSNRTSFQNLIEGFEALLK
Tyk2-JH1JH2, sequence (P29597 580-1182 C936A/C1142A): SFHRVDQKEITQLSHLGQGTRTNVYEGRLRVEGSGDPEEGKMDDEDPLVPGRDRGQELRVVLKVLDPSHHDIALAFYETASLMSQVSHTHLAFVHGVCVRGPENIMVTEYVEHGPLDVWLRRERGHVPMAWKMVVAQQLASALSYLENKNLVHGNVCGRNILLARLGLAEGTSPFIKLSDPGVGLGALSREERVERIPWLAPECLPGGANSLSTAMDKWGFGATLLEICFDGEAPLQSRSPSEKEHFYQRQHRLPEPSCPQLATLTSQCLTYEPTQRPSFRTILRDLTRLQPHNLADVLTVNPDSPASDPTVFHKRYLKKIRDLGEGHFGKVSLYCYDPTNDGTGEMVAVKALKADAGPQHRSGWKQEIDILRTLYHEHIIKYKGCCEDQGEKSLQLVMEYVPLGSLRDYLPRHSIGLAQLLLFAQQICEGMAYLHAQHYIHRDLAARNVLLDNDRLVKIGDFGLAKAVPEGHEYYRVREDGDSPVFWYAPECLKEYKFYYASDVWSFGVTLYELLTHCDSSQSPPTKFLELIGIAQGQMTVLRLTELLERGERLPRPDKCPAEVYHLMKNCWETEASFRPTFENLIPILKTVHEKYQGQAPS
JAK3-JH1JH2, sequence (P52333 512-1124): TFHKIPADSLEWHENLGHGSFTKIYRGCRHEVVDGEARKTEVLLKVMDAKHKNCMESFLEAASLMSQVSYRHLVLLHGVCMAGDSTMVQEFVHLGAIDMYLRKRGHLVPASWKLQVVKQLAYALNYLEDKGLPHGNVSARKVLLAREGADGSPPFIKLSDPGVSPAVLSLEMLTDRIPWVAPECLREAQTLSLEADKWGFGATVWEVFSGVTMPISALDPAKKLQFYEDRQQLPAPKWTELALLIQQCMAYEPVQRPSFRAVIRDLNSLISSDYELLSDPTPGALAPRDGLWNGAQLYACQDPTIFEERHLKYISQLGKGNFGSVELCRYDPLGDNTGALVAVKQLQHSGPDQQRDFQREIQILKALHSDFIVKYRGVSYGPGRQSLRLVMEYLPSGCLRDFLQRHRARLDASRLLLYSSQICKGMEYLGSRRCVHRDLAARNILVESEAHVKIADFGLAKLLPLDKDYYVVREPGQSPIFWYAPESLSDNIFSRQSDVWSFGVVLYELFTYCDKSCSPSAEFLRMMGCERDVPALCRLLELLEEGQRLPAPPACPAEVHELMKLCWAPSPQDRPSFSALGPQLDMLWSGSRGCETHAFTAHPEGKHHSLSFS
JAK2-JH1JH2, sequence (O60674 532-1132): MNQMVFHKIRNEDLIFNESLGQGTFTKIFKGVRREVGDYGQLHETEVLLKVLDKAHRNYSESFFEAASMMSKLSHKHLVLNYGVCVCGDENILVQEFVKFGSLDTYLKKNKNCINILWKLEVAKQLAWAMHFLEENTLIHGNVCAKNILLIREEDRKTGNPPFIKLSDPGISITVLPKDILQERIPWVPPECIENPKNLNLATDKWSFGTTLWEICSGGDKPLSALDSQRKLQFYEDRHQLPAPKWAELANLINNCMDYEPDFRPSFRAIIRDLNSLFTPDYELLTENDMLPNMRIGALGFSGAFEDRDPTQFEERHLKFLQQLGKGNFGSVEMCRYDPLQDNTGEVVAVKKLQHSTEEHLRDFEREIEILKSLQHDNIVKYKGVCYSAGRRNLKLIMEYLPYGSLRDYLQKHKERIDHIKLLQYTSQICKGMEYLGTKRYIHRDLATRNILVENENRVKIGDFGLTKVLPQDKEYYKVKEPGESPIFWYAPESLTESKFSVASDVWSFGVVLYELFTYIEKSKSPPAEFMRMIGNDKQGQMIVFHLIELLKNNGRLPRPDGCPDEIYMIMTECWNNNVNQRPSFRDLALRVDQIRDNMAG

N#CC[C@H]1CC[C@H](n2c(-c3c[nH]cn3)nc3cnc4[nH]ccc4c32)CC1 [Ex. 2, 2-((1r,4r)-4-(2-(1H-Imidazol-4-yl)imidazo[4,5-d]pyrrolo[2,3-b]pyridin-1(6H)-yl)cyclohexyl)acetonitrile] showed an IC50 (JAK1-JH1JH2) of 0.2 nM, an IC50 (JAK2-JH1JH2) of 1 nM and an IC50 (JAK3-JH1JH2) of 33.9 nM. For the same molecule, the IC50 (Tyk2-JH1JH2) was 1.5 nM.
